# Measured values published in publication PMC12430429, “Synthesis, Structure, DNA/BSA Binding, DNA Cleaving, Cytotoxic and SOD Mimetic Activities of Copper(II) Complexes Derived from Methoxybenzylamine Schiff Base Ligands” (Molecules, 2025).
# Legend:
# [1] = system: S. cerevisiae cells; test: Resazurin cytotoxicity assay (mitochondrial activity); type: cell-based; details: for Cell Death (%) / Reduction Percentage (%): 3 h incubation
# From the text: The resazurin-based model that monitors mitochondrial activity is widely used as an indicator of cell viability, proliferation and cytotoxicity. This method is based on the reduction of resazurin to resorufin by mitochondrial enzymes, as carriers of diaphorase activities, like NADPH-dehydrogenase, which are responsible for the transference of electrons from NADPH^+, H^+ to resazurin. The reduction of resazurin correlates with the number of live bacterial or mammalian cells or fungi. Furthermore, S. cerevisiae is an established model system for eukaryotic organisms. They have conserved cellular processes with high homology to those of humans. They proliferate rapidly and are even used as a model to study the effects of anticancer agents. The use of S. cerevisiae in resazurin redox testing is a good alternative to conventional cell viability testing techniques.
# The assay is based on the ability of living cells to reduce blue resazurin (7-hydroxy-3H-phenoxazin-3-one 10-oxide) to pink resorufin (7-hydroxy-3H-phenoxazin-3-one) which is measurable by the UV–Vis spectrophotometric or fluorometric method (AlamarBlue^TM). Living cells have active N-methylphenazinium methosulfate that catalyzes the redox reaction in mitochondria of NADH and blue resazurin to produce pink resorufin (Scheme 2). This test is used as an oxidation–reduction indicator in cell viability assays for yeasts and mammalian cells. Reduction of the dye by viable cells decreases the amount of the oxidized form (blue) and, at the same time, increases the amount of its fluorescent intermediate (pink), indicating the degree of cytotoxicity caused by the test material.
# S. cerevisiae cells (CCY 21-4-64; Libáň, Czech Republic) were cultured at 28 °C/24h on Saburaud’s dextrose agar with chloramphenicol (Merck, Boston, MA, USA). Subsequently, after 24 h, S. cerevisiae cells were inoculated into sterile liquid YPD medium (Sigma–Aldrich, St. Louis, MO, USA) and cultivation continued at 28 °C/24 h. In the exponential growth phase, cells were centrifuged (8.000 g/3 min), washed twice with sterile physiological solution (0.9% NaCl) and pipetted at a concentration of 1 × 10^9 cells/mL in sterile microtubes (modified procedure from Bitacura, 2018). Sterile physiological solution and copper complexes at concentrations of 1 × 10^−3 M, 3 × 10^−3 M and 5 × 10^−3 M were added to the centrifuged biomass to a total volume of 1 mL and individual samples were cultured in an incubator at 28 °C/3 h. After 3 h, 0.1 mL of ResazurinOX (in vitro toxicology assay kit based on resazurin, Sigma, USA) was added to each sample and the samples were allowed to culture for 2 h. After incubation, the biomass in the samples was separated from the supernatant by centrifugation (8000 g/5 min). The separated solution was diluted in a ratio of 1:1 with physiological solution and subjected to the measurement of UV spectra by the spectrophotometric method according to the recommended protocol of the kit manufacturer (Sigma, USA) on a GENESYS 10S UV–Vis spectrophotometer (Thermo Scientific, USA) in the range of 500–800 nm, using a 1 cm long cuvette.
# Cells’ innate metabolic was measured by using an established formula for the reduction percentage. The reduction percentage was calculated using the following formula:(7) Red(%)=ƐOX_600 nm×A570 nm_sample−ƐOX_570 nm×A600 nm_sample/ƐRED_570 nm×A600 nm_C−−ƐRED_600 nm×A570 nm_C−×100
# [2] = system: ct-DNA; test: DNA binding study by UV–Vis absorption titration; parameters: species or system calf; details: intraligand band ca. 370 nm on addition of ct-DNA
# Procedure: The absorption spectra of complexes 4a–c (1 × 10^−[…]) were recorded in the presence of increasing amounts of ct-DNA. Intraligand absorption bands with λmax in the region 350 –380 nm were used to monitor the interaction of compounds with ct-DNA. The intraligand absorption value was chosen as λmax = […], so the absorbance of DNA would not interfere. The UV–Vis spectrum affected by DNA addition is shown for complexes 4a in Figure 3, and the UV–Vis spectra of other compounds are provided in the Supplementary Materials (Figure S3-1).
# The DNA binding constants (Kb) of the complexes were determined by the Wolfe–Shimer equation (Equation (1)) and the respective plots (Figure 3 and Figure S3-1).
# The interactions of prepared complexes 4a–c with ct-DNA have been studied by UV–Vis monitored titration. The ct-DNA solution was prepared by dissolving 6 mg of ct-DNA in 5 mL of citrate buffer (composed of 15 mM sodium citrate and 150 mM sodium chloride mixture solution, at pH = 7.0). The concentration of ct-DNA was then determined by UV–Vis spectroscopy with the molar absorption coefficient of ct-DNA at 260 nm (6600 M^−1cm^−1). The studied complexes were dissolved in DMSO, from which working solutions were prepared by dilution using citrate buffer solution. Increasing concentrations of ct-DNA were then added to a buffer/DMSO solution (<1% DMSO) of the corresponding complex (1 × 10^−[…]).
# For the values of the binding strength of the interaction between the complex and the DNA molecule, binding constants Kb were calculated by the ratio of slope to the y intercept in the plots [DNA]/(εA-εf) compared to [DNA], according to the Wolfe–Shimer equation (Equation (1)):(1) [DNA]/(εA−εf)=[DNA]/(εb−εf)+1/Kb(εb−εf) where [DNA] is the concentration of DNA in base pairs, εf is the extinction coefficient of the free complex at the corresponding λmax, εA = Aobsd/[compound] and εb is the extinction coefficient of the complex in the fully bound form.
SMILES,Cell Death (%) ([1]; complex 1 mM),Reduction Percentage (%) ([1]; complex 1 mM),Cell Death (%) ([1]; complex 3 mM),Reduction Percentage (%) ([1]; complex 3 mM),Cell Death (%) ([1]; complex 5 mM),Reduction Percentage (%) ([1]; complex 5 mM),"decrease of intensity (ΔA/A0), hypochromism [2] [%]",cytotoxic activity (cell death) ([1]; over the tested concentrations 1–5 mM)
"COc1ccccc1CN=Cc1ccccc1[O-].COc1ccccc1CN=Cc1ccccc1[O-].[Cl-].[Cl-].[Cu+2].[Cu+2] [Complex 4a, [Cu2 (Sal-2-MeOBn)2 Cl2]]",67.1,32.9,91.6,8.4,96.5,3.5,32,–
"COc1cccc(CN=Cc2ccccc2[O][Cu][O]c2ccccc2C=NCc2cccc(OC)c2)c1 [Complex 4b, [Cu (Sal-3-MeOBn)2]]",76.0,24.0,92.6,7.4,99.0,1.0,26,–
"COc1ccc(CN=Cc2ccccc2[O-])cc1.COc1ccc(CN=Cc2ccccc2[O-])cc1.[Cl-].[Cl-].[Cu+2].[Cu+2] [Complex 4c, [Cu2 (Sal-4-MeOBn)2 Cl2]]",–,5.2,91.5,8.5,97.4,2.6,28,above 94%
